Source: patent publication US9133122B2, “Amide compounds, compositions and uses thereof” (EVOTEC AG, priority 2008, dated 2015)

How the values were obtained:
hP2X2/3H = biological target: T1, hP2X2/3H (Homo sapiens, UniProt P56373+Q9UBL9); test: Calcium uptake assay (Ca influx), P2X antagonist assay, P2X2/3 heteromer; format: cell-based; details: inhibition of agonist-induced calcium influx
T1 construct: expressed in transfected cells
T1 sequence (P56373 1-397): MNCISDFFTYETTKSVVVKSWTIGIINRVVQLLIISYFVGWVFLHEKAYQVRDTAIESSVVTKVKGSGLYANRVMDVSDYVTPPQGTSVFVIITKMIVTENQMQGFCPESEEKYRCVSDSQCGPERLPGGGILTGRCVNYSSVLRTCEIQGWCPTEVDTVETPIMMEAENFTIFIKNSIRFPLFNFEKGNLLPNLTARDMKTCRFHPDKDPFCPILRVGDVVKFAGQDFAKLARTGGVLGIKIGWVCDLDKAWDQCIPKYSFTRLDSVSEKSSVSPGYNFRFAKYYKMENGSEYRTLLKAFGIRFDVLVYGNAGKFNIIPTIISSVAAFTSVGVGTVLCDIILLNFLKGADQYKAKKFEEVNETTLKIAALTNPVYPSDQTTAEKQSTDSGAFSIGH
T1 sequence (Q9UBL9 1-471): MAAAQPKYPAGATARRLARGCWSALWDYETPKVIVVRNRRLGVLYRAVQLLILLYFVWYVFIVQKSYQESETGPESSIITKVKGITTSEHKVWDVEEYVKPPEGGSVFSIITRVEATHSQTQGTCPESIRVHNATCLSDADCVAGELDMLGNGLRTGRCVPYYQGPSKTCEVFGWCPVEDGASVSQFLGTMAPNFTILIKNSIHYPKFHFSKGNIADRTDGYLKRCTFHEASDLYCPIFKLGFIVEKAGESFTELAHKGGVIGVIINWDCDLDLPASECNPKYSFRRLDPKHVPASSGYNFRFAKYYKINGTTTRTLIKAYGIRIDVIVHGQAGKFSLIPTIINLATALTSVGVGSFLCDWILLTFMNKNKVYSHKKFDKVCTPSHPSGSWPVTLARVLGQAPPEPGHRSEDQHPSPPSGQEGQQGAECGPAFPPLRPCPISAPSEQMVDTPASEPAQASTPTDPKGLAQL
Method in brief: (§1)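 Receptors expressed in HEK293 or 1321N1 cells, transiently or stably; heteromer from P2X3 transfected into P2X2-stable line. Fluo-4-type dye in HBSS; compound pre-treatment 1–30 min, then agonist (αβMeATP, ATP or analog) at EC50-90. FLIPR peak minus baseline fluorescence; IC50 by 4-parameter fit, 1 pM–10 μM.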

hP2X3 = biological target: T2, hP2X3 (Homo sapiens, UniProt P56373); test: Calcium uptake assay (Ca influx), P2X antagonist assay, P2X3 homomer; format: cell-based; details: inhibition of agonist-induced calcium influx
T2 construct: expressed in transfected cells
T2 sequence (P56373 1-397): T1 sequence (P56373 1-397)
Method in brief: as §1

| IC50 (hP2X2/3H) [µM] | IC50 (hP2X3) [µM] | Compound |
| --- | --- | --- |
| 0.255 | 0.0332 | Cc1ccc(-c2cc(C(=O)NCc3cnc(C)nc3)cc(N3CCOCC3=O)c2)c(C#N)c1 [Compound 64, 2′-Cyano-4′-methyl-5-(3-oxo-morpholin-4-yl)-biphenyl-3-carboxylic acid (2-methyl-pyrimidin-5-ylmethyl)-amide] |
| 1.06 | 0.117 | Cc1ccc(-c2cc(C(=O)NCc3ccc(C)nc3)cc(N3CCNCC3=O)c2)c(C#N)c1 [Compound 65, 2′-Cyano-4′-methyl-5-(2-oxo-piperazin-1-yl)-biphenyl-3-carboxylic acid (6-methyl-pyridin-3-ylmethyl)-amide] |
| 0.729 | 0.0858 | Cc1ccc(-c2cc(C(=O)NCc3cnc(C)nc3)cc(N3CCNCC3=O)c2)c(C#N)c1 [Compound 66, 2′-Cyano-4′-methyl-5-(2-oxo-piperazin-1-yl)-biphenyl-3-carboxylic acid (2-methyl-pyrimidin-5-ylmethyl)-amide] |
| 0.667 | 0.102 | Cc1ccc(-c2cc(C(=O)NCc3ccc(C)nc3)cc(N3CCN(C)CC3=O)c2)c(C#N)c1 [Compound 67, 2′-Cyano-4′-methyl-5-(4-methyl-2-oxo-piperazin-1-yl)-biphenyl-3-carboxylic acid (6-methyl-pyridin-3-ylmethyl)-amide] |
| 1.39 | 0.371 | Cc1ccc(-c2cc(C(=O)NCc3ccc(C)nc3)cc(N3CCN(C)CC3=O)c2)cc1 [Compound 68, 4′-Methyl-5-(4-methyl-2-oxo-piperazin-1-yl)-biphenyl-3-carboxylic acid (6-methyl-pyridin-3-ylmethyl)-amide] |
| 0.24 | 0.0436 | Cc1ccc(-c2cc(C(=O)N[C@@H](C)CO)cc(-c3cc(C)ccc3C#N)c2)nc1 [Compound 71, 2′-Cyano-5′-methyl-5-(5-methyl-pyridin-2-yl)-biphenyl-3-carboxylic acid ((S)-2-hydroxy-1-methyl-ethyl)-amide] |
| 0.34 | 0.104 | Cc1ccc(-c2cc(C(=O)N[C@H](C)CN3CCOCC3)cc(-c3cc(C)ccc3C#N)c2)nc1 [Compound 73, 2′-Cyano-5′-methyl-5-(5-methyl-pyridin-2-yl)-biphenyl-3-carboxylic acid ((R)-1-methyl-2-morpholin-4-yl-ethyl)-amide] |
| 5.58 | 0.138 | COCC(CO)NC(=O)c1cc(-c2ccc(C)cn2)cc(-c2cc(C)ccc2C#N)c1 (stereo not drawn) [Compound 74, 2′-Cyano-5′-methyl-5-(5-methyl-pyridin-2-yl)-biphenyl-3-carboxylic acid (2-hydroxy-1-methoxymethyl-ethyl)-amide] |
| 0.373 | 0.0995 | Cc1ccc(-c2cc(C(=O)N[C@H](C)CN3CCOCC3)cc(-c3cccc(F)c3F)c2)nc1 [Compound 77, (R)-2′,3′-difluoro-5-(5-methylpyridin-2-yl)-N-(1-morpholinopropan-2-yl)biphenyl-3-carboxamide] |
| 7.17 | 0.221 | COCC(CO)NC(=O)c1cc(-c2ccc(C)cn2)cc(-c2cccc(F)c2F)c1 (stereo not drawn) [Compound 78, 2′,3′-Difluoro-5-(5-methyl-pyridin-2-yl)-biphenyl-3-carboxylic acid (2-hydroxy-1-methoxymethyl-ethyl)-amide] |
| 0.444 | 0.0718 | Cc1ccc(-c2cc(C(=O)N[C@@H](C)CO)cc(-c3cc(C(F)(F)F)ccc3C#N)c2)nc1 [Compound 79, 2′-Cyano-5-(5-methyl-pyridin-2-yl)-5′-trifluoromethyl-biphenyl-3-carboxylic acid ((S)-2-hydroxy-1-methyl-ethyl)-amide] |
| 0.218 | 0.351 | Cc1ccc(-c2cc(C(=O)N[C@H](C)CN3CCOCC3)cc(-c3cc(C(F)(F)F)ccc3C#N)c2)nc1 [Compound 80, (R)-2′-cyano-5-(5-methylpyridin-2-yl)-N-(1-morpholinopropan-2-yl)-5′-(trifluoromethyl)biphenyl-3-carboxamide] |
| 1.22 | 0.0487 | Cc1ccc(-c2cc(C(=O)N[C@@H](C)CO)cc(-c3ncccc3C(F)(F)F)c2)nc1 [Compound 81, N-((S)-2-Hydroxy-1-methyl-ethyl)-3-(5-methyl-pyridin-2-yl)-5-(3-trifluoromethyl-pyridin-2-yl)-benzamide] |
| 0.026 | 0.0721 | Cc1ccc(-c2cc(C(=O)N[C@H](C)CN3CCOCC3)cc(-c3c(F)cccc3C(F)(F)F)c2)nc1 [Compound 83, 2′-Fluoro-5-(5-methyl-pyridin-2-yl)-6′-trifluoromethyl-biphenyl-3-carboxylic acid ((R)-1-methyl-2-morpholin-4-yl-ethyl)-amide] |
| 0.85 | 0.0103 | Cc1ccc(-c2cc(C(=O)N[C@@H](C)CO)cc(-c3cnccc3C#N)c2)nc1 [Compound 84, 3-(4-Cyano-pyridin-3-yl)-N-((S)-2-hydroxy-1-methyl-ethyl)-5-(5-methyl-pyridin-2-yl)-benzamide] |
| 1.36 | 0.0319 | Cc1ccc(-c2cc(C(=O)N[C@@H](C)CO)cc(-c3cccc(F)c3F)c2)c(C#N)c1 [Compound 85, 2-Cyano-2″,3″-difluoro-4-methyl-[1,1′;3′,1″]terphenyl-5′-carboxylic acid ((S)-2-hydroxy-1-methyl-ethyl)-amide] |
| 0.0281 | 0.0022 | Cc1ccc(-c2cc(C(=O)N[C@@H](C)CO)cc(-c3cnccc3C#N)c2)c(C#N)c1 [Compound 86, 2′-Cyano-5-(4-cyano-pyridin-3-yl)-4′-methyl-biphenyl-3-carboxylic acid ((S)-2-hydroxy-1-methyl-ethyl)-amide] |
| 0.0186 | 0.0222 | Cc1ccc(-c2cc(C(=O)N[C@H](C)CN3CCOCC3)cc(-c3cnccc3C#N)c2)c(C#N)c1 [Compound 87, (R)-2′-Cyano-5-(4-cyanopyridin-3-yl)-4′-methyl-N-(1-morpholinopropan-2-yl)biphenyl-3-carboxamide] |
